Where a name gives a salt, the structure may show the parent alone.
Legend:
[1] = system: MPO, Cytochrome P450 reductase; assay: MPO and Cytochrome P450 reductase expression and activity after Arginase activity inhibition; format: cell-based; details: after Arginase activity inhibition with 5 nM ABH
Text: FIG. 12A and FIG. 12B present analysis of cytochrome P450 reductase; FIG. 12A presents a graph showing expression; FIG. 12B presents a graph showing activity. #, represents significance from ER+ and control groups; and ^, represents significance from ER−[CA] groups. n=4. P<0.01
FIG. 13A and FIG. 13B present analysis of MPO; FIG. 13A presents a graph showing expression; FIG. 13B presents a graph showing activity. #, represents significance from ER+ and control groups; and ^, represents significance from ER−[CA] groups. n=4. P<0.01.
(§1) The following inhibitory tests were performed to determine their role (and/or regulatory effect) on extra-tumoral NOHA accumulation. While NOHA is generated by NOS2 during nitric oxide production, it can be utilized in a NOS2 independent mechanism for nitric oxide generation, that could involve myeloperoxidase (MPO) mediated oxidation or cytochrome P450 reductase mediated pathway. Since NOHA is known to be a strong inhibitor of Arginase, and Arginase increase would favor tumor proliferation, the role of Arginase was also explored.

ER− 3D spheroids = assay: Medium NOHA level of 3D spheroids by ELISA in the presence of inhibitors; format: cell-based
Experimental: FIGS. 8A-8D present an analysis of medium NOHA level by ELISA in the presence or absence of inhibitors.
as §1, with “pathway.” for “pathway. Since NOHA is known to be a strong inhibitor of Arginase, and Arginase increase would favor tumor proliferation, the role of Arginase was also explored.”

[2] = NOHA stability analysis by ELISA, in vitro medium spiked with NOHA; format: physicochemical; details: medium spiked with 75 pg/ml NOHA
Experimental: FIG. 6A presents an In Vitro medium NOHA stability analysis based on incubation duration and temperature condition for up to 6 weeks. n=4.
ELISA Method. 50 μl of NOHA standard sample concentration prepared in Locke's buffer (viz., 10 mM HEPES, 5.6 mM KCl, 154 mM NaCl, 5.6 mM glucose, 1.2 mM MgCl2, 2.3 mM CaCl2, pH 7.4) was mixed with 50 μl of primary NOHA antibody serum (at 1:200 dilution, Pierce Thermo Fisher) and incubated for 30 min at 4° C. The mixture was added to a 96 well plate pre-coated with […] (at 100 pg/ml concentration, in Locke's buffer). The plate was then incubated for 1 hour on a plate-rotator at 500 rpm, at 2-8° C. After incubation, the well content was aspirated, and the wells were washed three times with 200 μl ice-cold wash buffer (10 mM phosphate buffer pH 7.4, 150 mM NaCl, 0.05% Tween 20). 100 μl of enzyme conjugated secondary antibody (at 1:20,000 dilution in wash buffer) was added, and incubated for 1 hour on a plate rotator at 500 rpm, at 2-8° C. At the end of this incubation, the wells were washed again three times with 200 μl ice-cold wash buffer. […] The plates were then read at 450 nm, within 10 min after adding stop solution.
In vitro medium. To analyze NOHA stability via ELISA assay, medium was spiked with 75 pg/ml of NOHA and NOHA recovery was determined over 6 weeks at different temperatures (viz., −80° C., −20° C., 4° C., 25° C., 37° C. and 42° C.). […]

[3] = NOHA stability analysis over temperature in extracellular matrix medium of 3D spheroids, LC-MS; format: physicochemical
Experimental: Extracellular matrix medium from cancerous and non-cancerous 3D spheroid (viz., 300 μl/spheroid cell line), that was collected on day 7 after spheroid formation were divided in to six (6) equal volumes of 50 μl each. Each of the 50-μl fractions/spheroid cell lines were incubated at −80° C., −20° C., 4° C., 25° C., 37° C. and 42° C. for 1, 3, 5, 7, 10, 12, and 14 days. At the end of the incubation, NOHA level was monitored by LC-MS (Tables 4.1-4.6).
Those medium samples that were incubated at higher temperature of 42° C. suffered the most with NOHA stability, which lasted for only 3 days (Table 4.4).
Tables 4.1-4.6: NOHA measurements after incubation at various temperatures

Structure (SMILES): N[C@@H](CCCCB(O)O)C(=O)O [ABH, 2(s)-amino-6-boronohexanoic acid]
- increase in Cytochrome P450 reductase expression and activity [1]: ≥ 0.98
- increase in MPO expression and activity [1]: ≥ 1.2 fold
- change in medium NOHA level (ER− 3D spheroids; 5 nM ABH, versus absence of ABH): no significant disease specific or ethnic specific change

Structure (SMILES): NC(=NCCC[C@H](N)C(=O)O)NO [NOHA, N^w-hydroxy-L-Arginine]
- period over which NOHA was stable ([2]; 4° C. and below (4, −20, −80° C.)): 6 week
- period over which NOHA maintained stability ([2]; 25° C., 37° C. and 42° C.): 1 week
- degradation or reduction in NOHA level ([3]; extracellular matrix medium at 4° C., −20° C., and −80° C., 14-day incubation): no significant degradation or reduction
- duration of stable NOHA monitoring level ([3]; medium samples incubated at 25° C.): 12 days
- duration of NOHA stability ([3]; medium samples incubated at 42° C.): 3 days
- duration of stable NOHA monitoring ([3]; medium samples stored at 37° C.): up to 7 days

Structure (SMILES): Clc1ccc(COC(Cn2ccnc2)c2ccc(Cl)cc2Cl)c(Cl)c1 (centres unmarked) [micronazole salt]
- increase in medium NOHA level (ER− 3D spheroids; ER−[AA], 10 μM inhibitor, over a 9 week period): ≥ 0.79 fold
- NOHA increase in the medium (ER− 3D spheroids; ER−[CA], 10 μM inhibitor, over a 9 week period): ≥ 0.42 fold
